Experimental findings from ChEMBL document CHEMBL4406824, “Phenolic N-monosubstituted carbamates: Antitubercular and toxicity evaluation of multi-targeting compounds” (Eur J Med Chem, 2019) are described below.

Data set [1] concerns Mycobacterium kansasii. Put plainly: Antimycobacterial activity against Mycobacterium kansasii 6509/96 after 7 days. The class given is functional. Particulars: 6509/96, 168 h.
Data set [2] deals with Mycobacterium tuberculosis. The format is functional. To be noted: H37Rv 331/88, 504 h.
The subject of data set [3] is Mycobacterium avium. Put plainly: Antimycobacterial activity against Mycobacterium avium 330/88 after 14 days. The class given is functional. To be noted: 330/88, 336 h.
Data set [4] relates to Mycobacterium kansasii. As to the kind of experiment: Antimycobacterial activity against Mycobacterium kansasii 6509/96 after 21 days. The class given is functional. To be noted: 6509/96, 504 h.
For data set [5], the system named is Mycobacterium tuberculosis. The class given is functional, H37Rv 331/88. Details: reference not given here.
Data set [6] concerns Mycobacterium avium. Put plainly: Antimycobacterial activity against Mycobacterium avium 330/88 after 21 days. The format is functional. Particulars: 330/88, 504 h.
The nature of another data set: in vitro. Particulars: human, HepG2 cells.
The test system of a further data set is Mycolicibacterium aurum. As to the kind of experiment: Antimycobacterial activity against Mycobacterium aurum DSM 43999 after 72 hr by resazurin dye based microdilution method. The class given is functional. To be noted: DSM 43999, 72 h.
Data set [7] relates to Mycobacterium kansasii. Put plainly: Antimycobacterial activity against Mycobacterium kansasii 235/80 after 14 days. The class given is functional. To be noted: 235/80, 336 h.
The subject of data set [8] is Mycobacterium kansasii. Put plainly: Potency index, ratio of p-aminosalicylic acid MIC to compound MIC for antimycobacterial activity against Mycobacterium kansasii 6509/96. The class given is functional.
The subject of data set [9] is HepG2. As to the kind of experiment: Cytotoxicity against human HepG2 cells assessed as reduction in cell viability after overnight incubation by MTT assay. The class given is cell-based.
Data set [10] concerns Mycobacterium kansasii. Put plainly: Antimycobacterial activity against Mycobacterium kansasii 235/80 after 7 days. Particulars: 235/80, 168 h. The class given is functional.
Data set [11] concerns Mycobacterium kansasii. As to the kind of experiment: Potency index, ratio of p-aminosalicylic acid MIC to compound MIC for antimycobacterial activity against Mycobacterium kansasii 235/80. The format is functional.
Data set [12] deals with Mycobacterium kansasii. As to the kind of experiment: Antimycobacterial activity against Mycobacterium kansasii 6509/96 after 14 days. The format is functional. To be noted: 6509/96, 336 h.
Data set [13] deals with Mycobacterium tuberculosis. The class given is functional. To be noted: H37Rv 331/88, 336 h.
Data set [14] deals with Mycobacterium tuberculosis H37Rv. Put plainly: Inhibition of recombinant Mycobacterium tuberculosis H37Rv ICL1 expressed in Escherichia coli BL21 (DE3) cells at 10 uM using (+)-potassium Ds-threo-isocitrate as substrate by glyoxylate phenyl hydrazone formation assay relative to control.
Data set [15] relates to Mycobacterium kansasii. As to the kind of experiment: Antimycobacterial activity against Mycobacterium kansasii 235/80 after 21 days. The format is functional. Particulars: 235/80, 504 h.
In data set [16] the test system is HepG2. Put plainly: Cytostatic activity against human HepG2 cells preincubated for overnight in serum free medium followed by compound wash out and further incubated for 72 hrs in presence of serum by MTT assay. The format is ADME, cell-based.
Data set [17] relates to Mycobacterium tuberculosis. As to the kind of experiment: Antimycobacterial activity against Mycobacterium tuberculosis H37Ra ITM-M006710 after 48 hr by resazurin dye based microdilution method. Particulars: H37Ra ITM-M006710, 48 h. The format is functional.
Data set [18] concerns Mycolicibacterium smegmatis. Put plainly: Antimycobacterial activity against Mycobacterium smegmatis DSM 43465 after 120 hr by resazurin dye based microdilution method. The format is functional. Particulars: DSM 43465, 120 h.

Values after ≈ are worked out from the molar mass of the structure shown.

Description for in vitro: Selectivity index, ratio of IC50 for human HepG2 cells to MIC for antimycobacterial activity against Mycobacterium tuberculosis H37Rv

For `O=C(Nc1ccccc1)Oc1ccc(Cl)cc1C(=O)Nc1ccc(Cl)cc1`, the MIC was determined as 8 µM (≈ 3.21 µg/mL) against Mycobacterium kansasii [1]; 16 µM (≈ 6.42 µg/mL) in data set [2]; 16 µM (≈ 6.42 µg/mL) in the data set with Mycobacterium avium [3]; 16 µM (≈ 6.42 µg/mL) in the data set on Mycobacterium kansasii [4]; 16 µM (≈ 6.42 µg/mL) in the data set with Mycobacterium avium [6]; 1.56 µg/mL against Mycolicibacterium aurum. Further, the MIC was found to be 32 µM (≈ 12.8 µg/mL) in the data set on Mycobacterium kansasii [7]; 16 µM (≈ 6.42 µg/mL) against Mycobacterium kansasii [10]; 16 µM (≈ 6.42 µg/mL) against Mycobacterium kansasii [12]; 16 µM (≈ 6.42 µg/mL) in data set [13]; 32 µM (≈ 12.8 µg/mL) with Mycobacterium kansasii [15]; 1.56 µg/mL in [17]. Besides, the MIC in data set [18] was 1.56 µg/mL. Moreover, the Ratio is over 125 in data set [5], over 250 in the data set on Mycobacterium kansasii [8] and over 250 with Mycobacterium kansasii [11]. Further, in the data set “in vitro”, the selectivity ratio was over 15.6. The IC50 is over 250 µM in the data set on HepG2 [9] and 0.9 µM in the data set on HepG2 [16]. In data set [14], the inhibition is 10%.

In the case of `O=C(Nc1ccccc1)Oc1ccc(Cl)cc1C(=O)Nc1ccc(F)cc1`, the MIC against Mycobacterium kansasii [1] came out at 8 µM (≈ 3.08 µg/mL); in data set [2], 8 µM (≈ 3.08 µg/mL); in the data set on Mycobacterium avium [3] it was 32 µM (≈ 12.3 µg/mL); in the data set with Mycobacterium kansasii [4], 16 µM (≈ 6.16 µg/mL); against Mycobacterium avium [6], 32 µM (≈ 12.3 µg/mL); in the data set on Mycolicibacterium aurum it was 1.98 µg/mL. Further, the MIC with Mycobacterium kansasii [7] was 16 µM (≈ 6.16 µg/mL); against Mycobacterium kansasii [10], 8 µM (≈ 3.08 µg/mL); with Mycobacterium kansasii [12] it was 16 µM (≈ 6.16 µg/mL); in data set [13], 4 µM (≈ 1.54 µg/mL); against Mycobacterium kansasii [15], 32 µM (≈ 12.3 µg/mL); in [17], 3.12 µg/mL. The compound also had an MIC in data set [18] of 1.98 µg/mL. For the same compound, the figures for the Ratio (in data set [5]; in the data set on Mycobacterium kansasii [8]; with Mycobacterium kansasii [11]) were over 125, over 250 and over 250, respectively. For the same compound, in “in vitro”, the selectivity ratio was over 2.5. Besides, the figures for the IC50 with HepG2 [9] and in the data set with HepG2 [16] were over 20 µM and 3.25 µM, respectively. Besides, the inhibition in [14] stood at 16%.

Regarding `O=C(NC1CCCCC1)Oc1ccc(Cl)cc1C(=O)Nc1ccc(Cl)cc1`, the MIC in the data set on Mycobacterium kansasii [1] was found to be 8 µM (≈ 3.26 µg/mL); in data set [2], 16 µM (≈ 6.52 µg/mL); in the data set on Mycobacterium avium [3], 16 µM (≈ 6.52 µg/mL); against Mycobacterium kansasii [4] it was 8 µM (≈ 3.26 µg/mL); against Mycobacterium avium [6], 16 µM (≈ 6.52 µg/mL); in the data set with Mycolicibacterium aurum, 1.56 µg/mL. The MIC against Mycobacterium kansasii [7] was 32 µM (≈ 13 µg/mL); against Mycobacterium kansasii [10], 16 µM (≈ 6.52 µg/mL); in the data set with Mycobacterium kansasii [12] it was 8 µM (≈ 3.26 µg/mL); in data set [13], 16 µM (≈ 6.52 µg/mL); against Mycobacterium kansasii [15] it was 32 µM (≈ 13 µg/mL); in data set [17], 3.12 µg/mL. In [18], this compound had an MIC of 1.56 µg/mL. Moreover, the Ratio in data set [5] is on record as over 125; in the data set with Mycobacterium kansasii [8], over 250; in the data set with Mycobacterium kansasii [11] it was over 250. The selectivity ratio in the data set “in vitro” was over 15.6. Moreover, the results for the IC50 with HepG2 [9] and in the data set on HepG2 [16] were over 250 µM and 33.6 µM, respectively. For the same compound, the inhibition in [14] was 13%.

As for `O=C(NCc1ccccc1)Oc1ccc(Cl)cc1C(=O)Nc1ccc(C(F)(F)F)cc1`, the MIC in the data set with Mycobacterium kansasii [1] was 8 µM (≈ 3.59 µg/mL); in [2] it was 4 µM (≈ 1.8 µg/mL); in the data set on Mycobacterium avium [3], 32 µM (≈ 14.4 µg/mL); with Mycobacterium kansasii [4], 16 µM (≈ 7.18 µg/mL); against Mycobacterium avium [6], 32 µM (≈ 14.4 µg/mL); in the data set with Mycolicibacterium aurum, at most 0.87 µM. The MIC against Mycobacterium kansasii [7] is 16 µM (≈ 7.18 µg/mL); against Mycobacterium kansasii [10], 8 µM (≈ 3.59 µg/mL); against Mycobacterium kansasii [12], 16 µM (≈ 7.18 µg/mL); in [13], 2 µM (≈ 0.898 µg/mL); in the data set with Mycobacterium kansasii [15], 16 µM (≈ 7.18 µg/mL); in data set [17] it was at most 0.87 µM. The compound further returned an MIC in data set [18] of 1.74 µM. Also, the results for the Ratio (in [5]; in the data set on Mycobacterium kansasii [8]; in the data set with Mycobacterium kansasii [11]) were over 125, over 250 and over 250, respectively. For the same compound, the selectivity ratio in “in vitro” is over 31.3. The figures for the IC50 in the data set with HepG2 [9] and in the data set on HepG2 [16] were over 125 µM and 3 µM, respectively. Besides, in [14], the inhibition came to 14%.

Consider `O=C(NCc1ccccc1)Oc1ccc(Cl)cc1C(=O)Nc1ccc(Br)cc1`, for which the MIC was 4 µM (≈ 1.84 µg/mL) in the data set on Mycobacterium kansasii [1]; 16 µM (≈ 7.36 µg/mL) in data set [2]; 8 µM (≈ 3.68 µg/mL) in the data set with Mycobacterium avium [3]; 8 µM (≈ 3.68 µg/mL) against Mycobacterium kansasii [4]; 16 µM (≈ 7.36 µg/mL) in the data set on Mycobacterium avium [6]; 1.98 µg/mL in the data set with Mycolicibacterium aurum. Also, the MIC in the data set on Mycobacterium kansasii [7] stood at 8 µM (≈ 3.68 µg/mL); against Mycobacterium kansasii [10], 4 µM (≈ 1.84 µg/mL); against Mycobacterium kansasii [12], 8 µM (≈ 3.68 µg/mL); in data set [13], 16 µM (≈ 7.36 µg/mL); against Mycobacterium kansasii [15] it was 8 µM (≈ 3.68 µg/mL); in data set [17] it was 3.91 µg/mL. For the same compound, the MIC in data set [18] was 1.98 µg/mL. Further, the Ratio was over 125 in [5], over 250 with Mycobacterium kansasii [8] and over 250 in the data set with Mycobacterium kansasii [11]. In the data set “in vitro”, the selectivity ratio was over 3.1. In addition, the 50% inhibitory concentration (IC50) in the data set with HepG2 [9] is over 50 µM; in the data set on HepG2 [16], 1.65 µM. Further, the inhibition in data set [14] stood at 17%.
